Here are results for 3 compounds from patent US12590075B2, “Refining method” (NGK Insulators, Ltd., priority 2020, dated 2026).

This series can be described thus: Dissolution time / dissolution rate of the raw material in a solvent (stereoscopic microscope, heating stage). The following applies: heating stage 50±5° C., order of solvents; for Dissolution rate of the raw material (Arranged in order from the fastest to the slowest): 25 mg compound in 2 mL solvent. Type of series: physicochemical. How it is done: The dissolution time of the raw material of febuxostat in a solvent was examined as described below. […] First, a heating stage ([…], Mettler) was installed in a stereoscopic microscope (SZX16, Olympus Corporation), and the surface temperature of the heating stage was maintained at 50±5° C. 25 mg of febuxostat (product code […], Tokyo Chemical Industry Co., Ltd.) was weighed into a flat laboratory dish (φ32 mm×16 mm), and 2 mL of the solvent was weighed and added to the laboratory dish, which was then immediately covered with a glass lid. The laboratory dish was placed on the heating stage. […] As a result, the dissolution time was ethanol<2-propanol<acetonitrile (in other words, the dissolution rate was ethanol>2-propanol>acetonitrile). […] The dissolution times of the raw materials of loxoprofen and diclofenac in the solvents were also examined in the same manner as febuxostat.

For `O=C(O)Cc1ccccc1Nc1c(Cl)cccc1Cl` [Diclofenac, diclofenac], the “Dissolution rate of the raw material (Arranged in order from the fastest to the slowest)” value (shortened to “Dissolution rate of the raw material”) is listed as “Ethanol, Ethanol/IPA^※1”. In the case of `Cc1nc(-c2ccc(OCC(C)C)c(C#N)c2)sc1C(=O)O` [Febuxostat, febuxostat], the “Dissolution rate of the raw material” value is reported as “Ethanol, 2-propanol, Acetonitrile”. The “Dissolution rate of the raw material” value (listed as febuxostat) is “ethanol>2-propanol>acetonitrile”. Also, where the note is “25 mg in 2 mL solvent, time until no undissolved material observed”, the dissolution time result is given as “ethanol<2-propanol<acetonitrile”. With `CC(C(=O)O)c1ccc(CC2CCCC2=O)cc1` (centres unmarked) [Loxoprofen, loxoprofen], the “Dissolution rate of the raw material” value was “Ethanol, 2-propanol”.
